Data as given in US20150352142A1, “STABILIZED COMPOSITIONS COMPRISING HYALURONIC ACID” (Carbylan Therapeutics, Inc., priority 2013, published 2015).

Tests used:
Format in all cases: physicochemical
[1] = Effect of additives on HA viscosity at 60° C., HA/triamcinolone hexacetonide (Example 18); conditions: HA solution
Description: 19.6 g of HA (Shiseido, IV=2 m^3/kg) was dissolved in 2.5 L of 0.9% NaCl overnight. The dissolved HA was sterile filtered with 0.2 um filter (Millipore, Opticap 4″). 1.15 mL of 1 M Sodium Phosphate, pH 6.71 was added to 228.9 mL of the HA solution. Then 334.9 mg of USP grade Triamcinolone hexacetonide(TH) was mixed with 200.95 mL of dissolved HA in a sterile 250 mL Nalgene bottle. […] Each mixture was mixed for 1 hour. No additives were added to the control sample. For each large sample, 2±0.2 mL aliquots were placed in a sterile 4 mL glass vial which was then sealed with septum and aluminum cap. All these aliquoted samples, except the Day 0 samples, were placed in an oven set at 60° C. With the exception of the Day 0 samples, at each time point, 3 of the samples were removed from the oven and allowed to cool to room temperature. The viscosity of each sample was measured using AR550 Rheometer (TA Instrument) with 40 mm 2° steel cone at 22° C. with a 3 min time sweep. The percent retention of the HA viscosity was determined by the ratio of the viscosity (average of the 3 samples) on the specified day to that on Day 0. The stabilization ratio at Day 6 is the ratio of the percent retention of HA viscosity with the specific additive to the percent retention of HA viscosity of the sample with no additive.

[2] = Specific viscosity retention of crosslinked HA hydrogel/HA solution formulation with and without TA, stored at 25° C. (Example 1A)
[3] = Effect of sucrose on HA viscosity at 80° C. (Example 1B); conditions: HA solution
Description: 6.9 g of hyaluronic acid, HA (Lifecore, 888 KDa) was dissolved in 881 mL of 0.9% NaCl overnight. The dissolved HA was sterile filtered with 0.2 μm filter (Millipore, Opticap 4″). 3.97 mL of 1 M sodium phosphate, pH 6.71 was added to the HA solution. Then 372 mg of USP grade triamcinolone acetonide (TA) was mixed with 223.2 mL of dissolved HA in a sterile 250 mL Nalgene bottle. […] Each mixture was mixed for 1 hour. No additives were added to the control sample. For each large sample, 2±0.2 mL aliquots were placed in a sterile 4 mL glass vial which was then sealed with septum and aluminum cap. All these aliquoted samples, except the 0 hour samples, were placed in an oven set at 80° C. With the exception of the 0 hour samples, at each time point, 3 of the samples were removed from the oven and allowed to cool to room temperature. The viscosity of each sample was measured using AR550 Rheometer (TA Instrument) with 40 mm 2° steel cone at 22° C. with a 3 min time sweep. The percent retention of the HA viscosity was determined by the ratio of the viscosity (average of the 3 samples) on the specified day to that on 0 hour. The stabilization ratio at 30 hours is the ratio of the percent retention of HA viscosity with the specific additive to the percent retention of HA viscosity of the sample with no additive.

[4] = Effect of sucrose on HA viscosity at 60° C. (Example 2); conditions: HA solution
Description: 6.9 g of HA (Lifecore, 888 KDa) was dissolved in 881 mL of 0.9% NaCl overnight. The dissolved HA was sterile filtered with 0.2 μm filter (Millipore, Opticap 4″). 3.97 mL of 1 M Sodium Phosphate, pH 6.71 was added to the HA solution. Then 372 mg of USP grade triamcinolone acetonide (TA) was mixed with 223.2 mL of dissolved HA in a sterile 250 mL Nalgene bottle. […] Each mixture was mixed for 1 hour. No additives were added to the control sample. For each large sample, 2±0.2 mL aliquots were placed in a sterile 4 mL glass vial which was then sealed with septum and aluminum cap. All these aliquoted samples, except the 0 hour samples, were placed in an oven set at 60° C. With the exception of the Day 0 samples, at each time point, 3 of the samples were removed from the oven and allowed to cool to room temperature. The viscosity of each sample was measured using AR550 Rheometer (TA Instrument) with 40 mm 2° steel cone at 22° C. with a 3 min time sweep. The percent retention of the HA viscosity was determined by the ratio of the viscosity (average of the 3 samples) on the specified day to that on Day 0. The stabilization ratio at Day 6 is the ratio of the percent retention of HA viscosity with the specific additive to the percent retention of HA viscosity of the sample with no additive.

[5] = Effect of sucrose on HA viscosity at 55° C. (Example 3); conditions: HA solution
Description: 6.9 g of HA (Lifecore, 888 KDa) was dissolved in 881 mL of 0.9% NaCl overnight. The dissolved HA was sterile filtered with 0.2 um filter (Millipore, Opticap 4″). 3.97 mL of 1 M Sodium Phosphate, pH 6.71 was added to the HA solution. Then 135.3 mg of USP grade Triamcinolone acetonide (TA) was mixed with 81.2 mL of dissolved HA in a sterile 250 mL Nalgene bottle. […] Each mixture was mixed for 1 hour. No additives were added to the control sample. For each large sample, 2±0.2 mL aliquots were placed in a sterile 4 mL glass vial which was then sealed with septum and aluminum cap. All these aliquoted samples, except the 0 hour samples, were placed in an oven set at 55° C. With the exception of the Day 0 samples, at each time point, 3 of the samples were removed from the oven and allowed to cool to room temperature. The viscosity of each sample was measured using AR550 Rheometer (TA Instrument) with 40 mm 2° steel cone at 22° C. with a 3 min time sweep. The percent retention of the HA viscosity was determined by the ratio of the viscosity (average of the 3 samples) on the specified day to that on Day 0. The stabilization ratio at Day 6 is the ratio of the percent retention of HA viscosity with the specific additive to the percent retention of HA viscosity of the sample with no additive.

[6] = Effect of sucrose on HA viscosity at 40° C. (Example 4); conditions: HA solution
Description: 6.9 g of HA (Lifecore, 888 KDa) was dissolved in 881 mL of 0.9% NaCl overnight. The dissolved HA was sterile filtered with 0.2 μm filter (Millipore, Opticap 4″). 3.97 mL of 1 M sodium phosphate, pH 6.71 was added to the HA solution. Then 372 mg of USP grade triamcinolone acetonide (TA) was mixed with 223.2 mL of dissolved HA in a sterile 250 mL Nalgene bottle. […] Each mixture was mixed for 1 hour. No additives were added to the control sample. For each large sample, 2±0.2 mL aliquots were placed in a sterile 4 mL glass vial which was then sealed with septum and aluminum cap. All these aliquoted samples, except the Week 0 samples, were placed in an oven set at 40° C. With the exception of the Day 0 samples, at each time point, 3 of the samples were removed from the oven and allowed to cool to room temperature. The viscosity of each sample was measured using AR550 Rheometer (TA Instrument) with 40 mm 2° steel cone at 22° C. with a 3 min time sweep. The percent retention of the HA viscosity was determined by the ratio of the viscosity (average of the 3 samples) on the specified day to that on Week 0. The stabilization ratio at Week 6 is the ratio of the percent retention of HA viscosity with the specific additive to the percent retention of HA viscosity of the sample with no additive.

[7] = Effect of sucrose on HA (880) viscosity at 55° C. (Example 10); conditions: HA (880 KDa) solution
Description: 4.7 g of HA (Lifecore, 880 KDa) was dissolved in 600 mL of 0.9% NaCl overnight. The dissolved HA was sterile filtered with 0.2 um filter (Millipore, Opticap 4″). 0.84 mL of 1 M Sodium Phosphate, pH 6.71 was added to 167.51 mL of the filtered HA solution. Then 248.4 mg of USP grade Triamcinolone acetonide (TA) was mixed with 144.2 mL of dissolved HA in a sterile 250 mL Nalgene bottle. […] Each mixture was mixed for 1 hour. No additives were added to the control sample. For each large sample, 2±0.2 mL aliquots were placed in a sterile 4 mL glass vial which was then sealed with septum and aluminum cap. All these aliquoted samples, except the 0 hour samples, were placed in an oven set at 55° C. With the exception of the 0 hour samples, at each time point (Day 1, Day 3 and Day 7), 3 of the samples were removed from the oven and allowed to cool to room temperature. The viscosity of each sample was measured using AR550 Rheometer (TA Instrument) with 40 mm 2° steel cone at 22° C. with a 3 min time sweep. The percent retention of the HA viscosity was determined by the ratio of the viscosity (average of the 3 samples) on the specified day to that on Day 0.

[8] = Effect of sucrose on HA (730) viscosity at 55° C. (Example 11); conditions: HA (730 KDa) solution
Description: 4.7 g of HA (Lifecore, 730 KDa) was dissolved in 600 mL of 0.9% NaCl overnight. The dissolved HA was sterile filtered with 0.2 um filter (Millipore, Opticap 4″). 0.86 mL of 1 M Sodium Phosphate, pH 6.71 was added to 171.8 mL of the HA solution. Then 248.2 mg of USP grade Triamcinolone acetonide (TA) was mixed with 148.9 mL of dissolved HA in a sterile 250 mL Nalgene bottle. […] Each mixture was mixed for 1 hour. No additives were added to the control sample. For each large sample, 2±0.2 mL aliquots were placed in a sterile 4 mL glass vial which was then sealed with septum and aluminum cap. All these aliquoted samples, except the 0 hour samples, were placed in an oven set at 55° C. With the exception of the 0 hour samples, at each time point (Day 1, Day 3 and Day 7), 3 of the samples were removed from the oven and allowed to cool to room temperature. The viscosity of each sample was measured using AR550 Rheometer (TA Instrument) with 40 mm 2° steel cone at 22° C. with a 3 min time sweep. The percent retention of the HA viscosity was determined by the ratio of the viscosity (average of the 3 samples) on the specified day to that on Day 0.

[9] = Effect of additives on HA viscosity at 60° C., HA/TA (Example 16); conditions: HA solution
Description: Then 344.3 mg of USP grade Triamcinolone Acetonide (TA) was mixed with 206.6 mL of dissolved HA in a sterile 250 mL Nalgene bottle. […] No additives were added to the control sample. For each large sample, 2±0.2 mL aliquots were placed in a sterile 4 mL glass vial which was then sealed with septum and aluminum cap. All these aliquoted samples, except the 0 hour samples, were placed in an oven set at 60° C. With the exception of the Day 0 samples, at each time point (Day 1, Day 3 and Day 7), 3 of the samples were removed from the oven and allowed to cool to room temperature. […] The percent retention of the HA viscosity was determined by the ratio of the viscosity (average of the 3 samples) on the specified day to that on Day 0.

[10] = Effect of additives on HA viscosity at 60° C., HA/TA (Example 17); conditions: HA solution
Description: 3.92 g of HA (Shiseido, IV=2 m^3/kg) was dissolved in 500 mL of 0.9% NaCl overnight. The dissolved HA was sterile filtered with 0.2 um filter (Millipore, Opticap 4″). 2.16 mL of 1 M Sodium Phosphate, pH 6.71 was added to the HA solution. Then 344.3 mg of USP grade Triamcinolone Acetonide (TA) was mixed with 206.6 mL of dissolved HA in a sterile 250 mL Nalgene bottle. […] No additives were added to the control sample. For each large sample, 2±0.2 mL aliquots were placed in a sterile 4 mL glass vial which was then sealed with septum and aluminum cap. All these aliquoted samples, except the 0 hour samples, were placed in an oven set at 60° C. With the exception of the Day 0 samples, at each time point (Day 1, Day 3 and Day 6), 3 of the samples were removed from the oven and allowed to cool to room temperature. The viscosity of each sample was measured using AR550 Rheometer (TA Instrument) with 40 mm 2° steel cone at 22° C. with a 3 min time sweep. The percent retention of the HA viscosity was determined by the ratio of the viscosity (average of the 3 samples) on the specified day to that on Day 0. The stabilization ratio at Day 6 is the ratio of the percent retention of HA viscosity with the specific additive to the percent retention of HA viscosity of the sample with no additive.

effect of presence of corticosteroid on HA viscosity vs HA without it (in words) [1]	effect of presence of corticosteroid on HA viscosity vs same formulation without it (in words) [2]	effect of presence of corticosteroid on HA viscosity vs HA without it (in words) [3]	effect of presence of corticosteroid on HA viscosity vs HA without it (in words) [4]	effect of presence of corticosteroid on HA viscosity vs HA without it (in words) [5]	effect of presence of corticosteroid on HA viscosity vs HA without it (in words) [6]	effect of presence of corticosteroid on HA viscosity vs HA without it (in words) [9]	effect of presence of corticosteroid on HA viscosity vs HA without it (in words) [10]	Compound	effect of presence of corticosteroid on HA viscosity vs HA without it (in words) [7]	effect of presence of corticosteroid on HA viscosity vs HA without it (in words) [8]
decrease in the viscosity of the HA	–	–	–	–	–	–	–	CC(C)(C)CC(=O)OCC(=O)[C@@]12OC(C)(C)O[C@@H]1C[C@H]1[C@@H]3CCC4=CC(=O)C=C[C@]4(C)[C@@]3(F)[C@@H](O)C[C@@]12C [triamcinolone hexacetonide, Triamcinolone hexacetonide]	–	–
–	decreased more rapidly over time	increased degradation of the HA	increased degradation of the HA	increased degradation of the HA	increased degradation of the HA	increased degradation of the HA	increased degradation of the HA	CC1(C)O[C@@H]2C[C@H]3[C@@H]4CCC5=CC(=O)C=C[C@]5(C)[C@@]4(F)[C@@H](O)C[C@]3(C)[C@]2(C(=O)CO)O1 [TA, triamcinolone acetonide]	increased decrease in the viscosity of the HA	increased decrease in the viscosity of the HA
